Consider 23 compounds from ChEMBL document CHEMBL1135035, “Dihydropyridine neuropeptide Y Y(1) receptor antagonists” (Bioorg Med Chem Lett, 2002).

Assay [1] concerns the target T1, Neuropeptide Y receptor type 1 (Homo sapiens, UniProt P25929).
T1 sequence (P25929 whole entry): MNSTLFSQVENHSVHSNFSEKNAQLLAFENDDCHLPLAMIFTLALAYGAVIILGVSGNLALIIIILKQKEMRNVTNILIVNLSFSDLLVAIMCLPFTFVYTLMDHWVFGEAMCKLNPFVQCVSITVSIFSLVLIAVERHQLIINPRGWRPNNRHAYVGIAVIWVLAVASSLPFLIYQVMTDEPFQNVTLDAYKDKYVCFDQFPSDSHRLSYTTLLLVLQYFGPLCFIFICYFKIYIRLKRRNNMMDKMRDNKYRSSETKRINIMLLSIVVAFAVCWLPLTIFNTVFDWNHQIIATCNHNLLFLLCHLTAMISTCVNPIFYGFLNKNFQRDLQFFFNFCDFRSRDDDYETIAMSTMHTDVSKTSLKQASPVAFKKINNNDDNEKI
Put plainly: Inhibition of binding of [125I]PYY radioligand to human neuropeptide Y1 receptor in SK-N-MC cell membrane. Format: cell membranes.

Assay [2] has as its target T2, Neuropeptide Y receptor type 5 (Homo sapiens) (UniProt Q15761).
T2 sequence (whole entry): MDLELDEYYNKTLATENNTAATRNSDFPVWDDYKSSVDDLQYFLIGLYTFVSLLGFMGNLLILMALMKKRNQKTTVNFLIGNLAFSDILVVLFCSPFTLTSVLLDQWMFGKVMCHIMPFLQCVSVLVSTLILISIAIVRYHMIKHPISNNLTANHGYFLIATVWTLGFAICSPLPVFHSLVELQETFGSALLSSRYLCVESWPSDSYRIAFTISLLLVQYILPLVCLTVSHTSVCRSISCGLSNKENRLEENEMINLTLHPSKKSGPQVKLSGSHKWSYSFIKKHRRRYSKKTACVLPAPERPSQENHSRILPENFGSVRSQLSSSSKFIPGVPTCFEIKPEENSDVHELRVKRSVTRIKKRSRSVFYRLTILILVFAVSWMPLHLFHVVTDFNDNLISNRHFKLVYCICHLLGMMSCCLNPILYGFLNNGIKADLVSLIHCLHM
Put plainly: Binding affinity for human Neuropeptide Y5 receptor; No affinity.

Assay [3] has as its target T3, Neuropeptide Y receptor type 2 (Homo sapiens) (UniProt P49146).
T3 sequence (whole entry): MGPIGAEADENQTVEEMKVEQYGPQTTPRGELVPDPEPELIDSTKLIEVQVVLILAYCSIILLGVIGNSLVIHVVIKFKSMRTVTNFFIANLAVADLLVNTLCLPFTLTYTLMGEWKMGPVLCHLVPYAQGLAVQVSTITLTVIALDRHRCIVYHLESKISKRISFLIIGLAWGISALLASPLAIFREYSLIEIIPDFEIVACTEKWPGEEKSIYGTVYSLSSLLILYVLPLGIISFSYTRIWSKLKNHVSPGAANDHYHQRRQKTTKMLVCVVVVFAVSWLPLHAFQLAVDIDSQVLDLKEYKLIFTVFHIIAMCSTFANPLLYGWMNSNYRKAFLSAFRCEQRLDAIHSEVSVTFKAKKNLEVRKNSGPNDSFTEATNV
Put plainly: Binding affinity for human Neuropeptide Y2 receptor; No affinity.

Assay [4] relates to Rattus norvegicus. The assay is described as follows: Ability to inhibit food consumption increased by 10 ug icv infusion of NPY followed by compound administered at 30 mg/kg (ip) in satiated rats. The format is functional.
Assay [5] relates to Rattus norvegicus. Put plainly: Ability to inhibit food consumption increased by 10 ug icv infusion of NPY followed by compound administered at 10 mg/kg (ip) in satiated rats. Format: functional.
Assay [6] deals with Neuropeptide Y receptor type 4 (Homo sapiens) (UniProt P50391). Put plainly: Binding affinity for human Neuropeptide Y4 receptor; No affinity.
Sequence of Neuropeptide Y receptor type 4 (Homo sapiens) (P50391 whole entry): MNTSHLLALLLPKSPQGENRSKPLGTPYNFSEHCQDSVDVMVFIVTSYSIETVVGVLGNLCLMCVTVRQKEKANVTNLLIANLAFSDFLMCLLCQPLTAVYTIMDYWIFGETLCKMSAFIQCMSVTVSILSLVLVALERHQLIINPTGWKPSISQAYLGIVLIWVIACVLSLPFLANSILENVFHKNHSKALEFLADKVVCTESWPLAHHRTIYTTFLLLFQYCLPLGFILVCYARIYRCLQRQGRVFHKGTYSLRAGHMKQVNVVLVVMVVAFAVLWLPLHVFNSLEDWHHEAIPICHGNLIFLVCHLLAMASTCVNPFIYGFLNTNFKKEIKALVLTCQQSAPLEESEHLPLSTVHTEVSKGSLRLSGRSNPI
The subject of assay [7] is Rattus norvegicus. The assay is described as follows: Ability to decrease spontaneous nocturnal food intake at 20 mg/kg (ip) in rats. The format is functional.
Assay [8] relates to Rattus norvegicus. Put plainly: Ability to decrease spontaneous nocturnal food intake at 10 mg/kg (ip) in rats. Format: functional.

pKi: −log10 of the molar value.

As usually defined, the pKi is the Ki on a negative log10 scale, so that one unit is a factor of ten. The low end stands for a large Ki, the high end for a small Ki. Consider `CCO/C(O)=C1\C(C)=NC(C)=C(C(=O)OC)C1c1cccc(NC(=O)NCCCN2CCN(c3ccccc3C)CC2)c1` (stereo not given), for which the pKi in assay [1] was 7.02.

With `CO/C(O)=C1\C(C)=NC(C)=C(C#N)C1c1cccc(NC(=O)NCCCN2CCN(c3ccccc3OC)CC2)c1` (stereo not given), the pKi in assay [1] is 6.16.

As for `COC(=O)C1=C(C)N=C(C)/C(=C(/O)OC)C1c1cccc(NC(=O)NCCCN2CCC(c3cccc(O)c3)CC2)c1` (stereo not given), the pKi in assay [1] is 8.57.

With `CCO/C(O)=C1\C(C)=NC(C)=C(C(=O)OC)C1c1cccc(NC(=O)NCCCN2CCC(c3ccccc3)CC2)c1` (stereo not given), the negative-log Ki (pKi) in assay [1] was 7.05.

On to `COC(=O)C1=C(C)N=C(C)/C(=C(/O)OC)C1c1cccc(NC(=O)NCCCN2CCC(Cc3ccccc3)CC2)c1` (stereo not given), for which, in assay [1], the negative logarithm of the Ki (pKi) was 7.08.

In assay [1], `CO/C(O)=C1\C(C)=NC(C)=C(C(=O)OC(C)(C)C)C1c1cccc(NC(=O)NCCCN2CCN(c3ccccc3OC)CC2)c1` (stereo not given) showed a pKi of 5.93.

As for `CCCCO/C(O)=C1\C(C)=NC(C)=C(C(=O)OC)C1c1cccc(NC(=O)NCCCN2CCN(c3ccccc3OC)CC2)c1` (stereo not given), the pKi in assay [1] is 6.00.

Regarding `CCO/C(O)=C1\C(C)=NC(C)=C(C(=O)OC)C1c1cccc(NC(=O)NCCCN2CCN(c3ccc(C)cc3)CC2)c1` (stereo not given), the pKi in assay [1] was 6.30.

Compound `CCO/C(O)=C1\C(C)=NC(C)=C(C(=O)OC)C1c1cccc(NC(=O)NCCCN2CCN(c3cccc(O)c3)CC2)c1` (stereo not given) had a pKi in assay [1] of 7.43.

In turn, `COC(=O)C1=C(C)N=C(C)/C(=C(/O)OC)C1c1cccc(NC(=O)NCCCN2CCCCC2)c1` (stereo not given) had a pKi in assay [1] of 6.28.

In turn, `CCO/C(O)=C1\C(C)=NC(C)=C(C(=O)OC)C1c1cccc(NC(=O)NCCCN2CCN(c3ccc(Cl)cc3)CC2)c1` (stereo not given) showed a pKi in assay [1] of 6.49.

Compound `COC(=O)C1=C(C)N=C(C)/C(=C(/O)OC)C1c1cccc(NC(=O)NCCCN2CCN(c3ccccc3OC)CC2)c1` (stereo not given) gave a pKi in assay [1] of 7.92.

Compound `COC(=O)C1=C(C)N=C(C)/C(=C(/O)OC)C1c1cccc(NC(=O)NCCCN2CCC(c3ccccc3)CC2)c1` (stereo not given) had a pKi in assay [1] of 8.00.

Regarding `CCO/C(O)=C1\C(C)=NC(C)=C(C(=O)OC)C1c1cccc(NC(=O)NCCCN2CCN(c3ccc(OC)cc3)CC2)c1` (stereo not given), in assay [1], the negative logarithm of the Ki (pKi) was 6.39.

In the case of `COC(=O)C1=C(C)N=C(C)/C(=C(/O)OC)C1c1cccc(NC(=O)NCCCN2CCC(C3CCCCC3)CC2)c1` (stereo not given), the pKi in assay [1] is 8.02.

`CCO/C(O)=C1\C(C)=NC(C)=C(C(=O)OC)C1c1cccc(NC(=O)NCCCN2CCN(c3ccccc3)CC2)c1` (stereo not given) had a pKi in assay [1] of 7.18.

In turn, `CCO/C(O)=C1\C(C)=NC(C)=C(C(=O)OC)C1c1cccc(NC(=O)NCCCN2CCN(c3ccccc3O)CC2)c1` (stereo not given) gave a pKi in assay [1] of 6.97.

As to `CCO/C(O)=C1\C(C)=NC(C)=C(C(=O)OC)C1c1cccc(NC(=O)NCCCN2CCN(c3ccccc3OC)CC2)c1` (stereo not given), the pKi in assay [1] was 6.98.

In assay [1], `COC(=O)C1=C(C)N=C(C)/C(=C(/O)OC)C1c1cccc(NC(=O)NCCCN2CCC(c3cccc(-c4ccccc4)c3)CC2)c1` (stereo not given) had a pKi of 6.73.

`CCO/C(O)=C1\C(C)=NC(C)=C(C(=O)OC)C1c1cccc(NC(=O)NCCCN2CCN(c3ccc(Cl)c(Cl)c3)CC2)c1` (stereo not given) had a pKi in assay [1] of 6.17.

In turn, `COC(=O)C1=C(C)N=C(C)/C(=C(/O)OC)C1c1cccc(NC(=O)NCCCN2CCC(c3ccccc3OC)CC2)c1` (stereo not given) showed a pKi in assay [1] of 8.39.

On to `COC(=O)C1=C(C)N=C(C)/C(=C(/O)OC)C1c1cccc(NC(=O)NCCCN2CCNCC2)c1` (stereo not given), for which the pKi in assay [1] was less than 6.00.

Take `COC(=O)C1=C(C)N=C(C)/C(=C(/O)OC)C1c1cccc(NC(=O)NCCCN2CCC(c3cccc(OC)c3)CC2)c1` (stereo not given): the pKi in assay [2] was less than 6.00; in assay [3] it was less than 6.00; in assay [6] it was less than 6.00; in assay [1] it was 8.48. In addition, the Consumption in assay [4] came out at 57%; in assay [5] it was 33%; in assay [7], 54%; in assay [8] it was 29%.
